Reference: paper PMC11117929, “Benzamide Trimethoprim Derivatives as Human Dihydrofolate Reductase Inhibitors—Molecular Modeling and In Vitro Activity Study” (Biomedicines, 2024)

Target: T1, recombinant human DHFR (Homo sapiens, UniProt P00374)
T1 construct: purchased Sigma Aldrich (St. Louis, MO, USA)
T1 sequence (P00374 1-187): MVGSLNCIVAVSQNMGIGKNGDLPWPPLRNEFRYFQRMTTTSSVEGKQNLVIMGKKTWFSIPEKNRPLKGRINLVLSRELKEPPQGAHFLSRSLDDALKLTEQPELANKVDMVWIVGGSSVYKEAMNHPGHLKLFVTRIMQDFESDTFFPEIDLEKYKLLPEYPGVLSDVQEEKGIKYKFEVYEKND
Assay: Dihydrofolate reductase (DHFR) inhibition assay (assay kit)
Type: biochemical
Settings: mean of three assays ± S.D.
Description: All reagents were purchased from Fluka (Sigma-Aldrich, Poznań, Poland), Merck (Darmstadt, Germany), or Alfa Aesar (Karlsruhe, Germany) and used without further purification. Dichloromethane (DCM) and dimethylformamide (DMF) were stored in 4 Å molecular sieves. The Dihydrofolate Reductase Assay Kit was purchased from Sigma Aldrich (St. Louis, MO, USA).
The inhibition of dihydrofolate reductase by the new TMP analogs, that is, determining their effect on the activity of recombinant human DHFR, was tested according to the instructions provided by the manufacturer and used previously.
In all experiments, the mean values for three assays ± standard deviations (S.D.) were calculated. The results were submitted to statistical analysis using the Student’s t-test. Differences were considered significant at p < 0.05.

| SMILES | IC50 [µM] |
| --- | --- |
| COc1cc(C(=O)Nc2cccc(NC(=O)c3cc(OC)c(OC)c(OC)c3)c2)cc(OC)c1OC [JW1] | 8.5 ± 0.06 |
| COc1ccc(C(=O)Nc2cccc(NC(=O)c3ccc(OC)cc3)c2)cc1 [JW4] | 15.3 ± 0.04 |
| COc1ccc(C(=O)Nc2cccc(NC(=O)c3ccc(OC)c(OC)c3)c2)cc1OC [JW3] | 9.83 ± 0.03 |
| COc1cc(NC(=O)c2cc(OC)c(OC)c(OC)c2)cc(OC)c1OC [MB3] | 9.17 ± 0.01 |
| COc1ccc(C(=O)Nc2ccc(NC(=O)c3ccc(OC)cc3)cc2)cc1 [JW8] | 12.15 ± 0.02 |
| COc1ccc(C(=O)Nc2ccc(NC(=O)c3ccc(OC)c(OC)c3)cc2)cc1OC [JW7] | 8.13 ± 0.06 |
| COc1cc(OC)cc(C(=O)Nc2ccc(NC(=O)c3cc(OC)cc(OC)c3)cc2)c1 [JW6] | 4.72 ± 0.05 |
| COc1cc(C(=O)Nc2ccc(NC(=O)c3cc(OC)c(OC)c(OC)c3)cc2)cc(OC)c1OC [JW5] | 4.8 ± 0.05 |
| COc1cc(OC)cc(C(=O)Nc2cccc(NC(=O)c3cc(OC)cc(OC)c3)c2)c1 [JW2] | 10.15 ± 0.02 |
| COc1cc(CNC(=O)c2cc(OC)c(OC)c(OC)c2)cc(OC)c1OC [MB4] | 20.17 ± 0.03 |
| COc1cc(C(=O)Nc2cccc([N+](=O)[O-])c2)cc(OC)c1OC [MB1] | 10.16 ± 0.01 |

Target: acetylcholinesterase (AChE)
Assay: not given
Design: method as in PMID 37834347
Settings: cited from earlier work

| SMILES | IC50 [µM] |
| --- | --- |
| COc1ccc(C(=O)Nc2ccc(NC(=O)c3ccc(OC)cc3)cc2)cc1 [JW8] | 0.056 |

System: plasmid DNA
Assay: not given
Settings: ethidium bromide displacement, netropsin as standard; cited from earlier work

| SMILES | binding to plasmid DNA |
| --- | --- |
| COc1cc(Cc2cnc(N)nc2N)cc(OC)c1OC [TMP, trimethoprim] | does not bind to the plasmid |

System: various cancer cells
Assay: not given
Design: method as in PMID 36680987
Settings: cited from earlier work

| SMILES | antiproliferative activity |
| --- | --- |
| COc1cc(NC(=O)c2cc(OC)c(OC)c(OC)c2)cc(OC)c1OC [MB3] | showed antiproliferative activity |
| COc1cc(CNC(=O)c2cc(OC)c(OC)c(OC)c2)cc(OC)c1OC [MB4] | showed antiproliferative activity |

Target: β-secretase (BACE1)
Assay: not given
Design: method as in PMID 37834347
Settings: cited from earlier work

| SMILES | IC50 [µM] |
| --- | --- |
| COc1ccc(C(=O)Nc2ccc(NC(=O)c3ccc(OC)cc3)cc2)cc1 [JW8] | 9.01 |
